Results: EP1053750A1, “Use of proteasome-inhibitor for the induction of programmed cell death (apoptosis)” (Max-Planck-Gesellschaft zur Förderung der Wissenschaften …, priority 1999, dated 2000)
pEC50: −log10 of the molar value. Peptide text beside a SMILES is read from it. * marks the point of attachment. Cbz = O=C(OCc1ccccc1)*; OtBu = CC(C)(C)O*

Key:
HUE cells = test: DNA fragmentation assay; type: cell-based, human; settings: 10 µM PSI for 18 hours, agarose gel
Method: • a. Analysis of PSI-induced DNA fragmentation by agarose gel electrophoresis. […] Neither caspase inhibitor (Ac-YVAD-CHO 250 µM, lane 4; Ac-DEVD-CHO 250 µM, lane 5) nor DMSO (lane 6) induced the characteristic pattern of DNA fragmentation. M1 and M2: DNA size markers (kb). • b. Immunoblot analysis of HUE cell lysates after incubation with PSI. […] Equal loading was controlled by using an antibody directed against GAPDH enzyme.
HUE cells which had been plated at 20000 cells/cm^2 24 hours before the assay, were treated with 250 µM of the caspase inhibitors Ac-YVAD-CHO or Ac-DEVO-CHO (Peptide Institute, Osaka, Japan) or the equivalent volume of dimethylsulfoxide (DMSO) for 1 h prior to additon of the proteasomal inhibitors. Incubation of the cells was continued for a further 18 h and the extent of DNA fragmentation was analyzed as previously described with some minor modifications (Hockenberry et al., Nature 348 (1990), 334 - 336). Briefly, both the floating cells and the adherent cells which were detached by trypsinization, were lysed in a solution containing 0.5% Triton X100, 10 mM EDTA and 10 mM Tris-HCL pH 7.5 for 30 min on ice. To separate the intact chromatin from the oligonucleosomal fragments, the lysate was centrifuged at 13000 g for 10 min at 4°C and the resulting supernatant was sequentially extracted with phenol followed by phenol/chloroform/iso-amylalcohol (25:24:1; v/v/v). Low molecular weight DNA was precipitated by the addition of 0.5 vol 7 M ammonium acetate and 2.5 vol ice-cold ethanol. The precipitate was washed in 75% ethanol, dissolved in TE-buffer, containing RNase A (20 µg/ml; Boehringer Mannheim), incubated for 30 min at 37°C and subjected to electrophoresis on 1.5% agarose gels.

MDCK epithelial cells = test: Viability assay (MIT assay), MDCK cells; type: cell-based, canine; settings: for pEC50: Canis lupus familiaris, 48 h, 48 h incubation
Method: The indicated values are expressed as the percentage of absorbance at 570 nm relative to the absorbance obtained by DMSO treated (control) cells.
Madin Darby canine kidney epithelial cells (MDCK; ATCC CLL-34) were grown in Dulbecco's Modified Eagle's Medium (DMEM) containing 10% FCS, penicillin and streptomycin.
Briefly, the cells were plated either at 3000 cells/well (low density) or 30000 cells/well (high density) onto 96 well plates and grown over night. […] The formazan cystals generated were subsequently dissolved in DMSO and absorption measured at 570 - 650 nm.

SMILES: CC[C@H](C)[C@H](NC(=O)OCc1ccccc1)C(=O)N[C@@H](CCC(=O)OC(C)(C)C)C(=O)N[C@@H](C)C(=O)N[C@H](C=O)CC(C)C [PSI, carbobenzoxy-L-isoleucyl-y-t-butyl-L-glutamyl-L-alanyl-L-leucinal] (Cbz-IE(OtBu)AL-aldehyde)
- DNA fragmentation (DNA ladder formation) (HUE cells): induced DNA ladder formation
- pEC50 (MDCK epithelial cells; con (confluent)): 5.51
- pEC50 (MDCK epithelial cells; sub (low density, subconfluent)): 7.80
- x difference (MDCK epithelial cells; EC50 confluent versus subconfluent, 2880 min): 194 fold
